Test results published in paper PMC6089501 (Journal of Medicinal Chemistry, 2018).
Converted amounts (≈) assume the structure as drawn. Like-named read-outs stand apart in the source and are kept apart here.

How the values were obtained:
[1] = for CL mouse MEAN: microsomes
[2] = test system: M. tuberculosis H37Rv; assay: microbe, parasite or virus in culture; assay type: cell-based, Mycobacterium tuberculosis; settings: Mycobacterium tuberculosis, H37RV; for MIC90: read-out: MIC (MIC90); for IC90: read-out: TB-IC90_OD GEOM_MEAN
[3] = test system: Vero cells; assay: cells; settings: Chlorocebus sabaeus, read-out: VERO IC50
Description: Compounds were solubilized in DMSO and assayed as a 10-point 3-fold serial dilution. Compounds were incubated with cells for 2 days at 37 °C, 5% CO2. CellTiter-Glo Reagent (Promega) was added and relative luminescent units (RLU) measured.

[4] = physchem

With `COC(=O)c1sc(N2CCOCC2)cc1OCCc1ccccc1` [Compound 14, Methyl 5-Morpholino-3-(2-phenylethoxy)thiophene-2-carboxylate] the Cli mouse ([1]; female, CD1, mouse, pH 7.4) was 50 mL.min^–1.g^–1, the MIC90 [2] was greater than 20 µM and the IC50 [3] was greater than 100 µM.
In the case of `NC(=O)c1sccc1OCCc1ccccc1` [Compound 27, 3-(2-Phenylethoxy)thiophene-2-carboxamide], the Cli mouse ([1]; female, CD1, mouse, pH 7.4) is reported as 26 mL.min^–1.g^–1, the “CL mouse MEAN” value ([1]; mouse) is reported as 26 mL/min/g and the chromatographic logD [4] is reported as 2.05. It also gave an MIC90 [2] greater than 20 µM, an IC90 [2] greater than 20 µM and an IC50 [3] greater than 100 µM.
In the case of `COc1ccc(CCOc2cc(N3CCOCC3)sc2C(N)=O)cc1` [Compound 36, 3-[2-(4-Methoxyphenyl)ethoxy]-5-morpholinothiophene-2-carboxamide], the Cli mouse ([1]; female, CD1, mouse, pH 7.4) is reported as 5.7 mL.min^–1.g^–1, the “CL mouse MEAN” value ([1]; mouse) is reported as 5.742 mL/min/g and the chromatographic logD [4] is reported as 1.73. The MIC90 [2] was 0.63 µM (≈ 0.228 µg/mL), the IC90 [2] was 0.57 µM and the IC50 [3] was greater than 100 µM.
For `NC(=O)c1sc(N2CCOCC2)cc1OCCc1ccc(F)cc1` [Compound 40], the “CL mouse MEAN” value ([1]; female, CD1, mouse, pH 7.4) was 12.72 mL/min/g, the Cli mouse ([1]; female, CD1, mouse, pH 7.4) was 13 mL.min^–1.g^–1 and the chromatographic logD [4] was 1.85. The MIC90 [2] was 0.9 µM (≈ 0.315 µg/mL) and the IC50 [3] was greater than 100 µM.
In the case of `COc1cccc(CCOc2cc(N3CCOCC3)sc2C(N)=O)c1` [Compound 41, 3-[2-(3-Methoxyphenyl)ethoxy]-5-morpholinothiophene-2-carboxamide], the Cli mouse ([1]; female, CD1, mouse, pH 7.4) is reported as 10 mL.min^–1.g^–1, the “CL mouse MEAN” value ([1]; mouse) is reported as 10.31 mL/min/g and the chromatographic logD [4] is reported as 1.85. It also gave an MIC90 [2] of 1.6 µM (≈ 0.58 µg/mL) and an IC50 [3] of 89 µM.
For `COc1ccccc1CCOc1cc(N2CCOCC2)sc1C(N)=O` [Compound 42, 3-[2-(2-Methoxyphenyl)ethoxy]-5-morpholinothiophene-2-carboxamide], the Cli mouse ([1]; female, CD1, mouse, pH 7.4) was 26 mL.min^–1.g^–1, the “CL mouse MEAN” value ([1]; mouse) was 26.42 mL/min/g and the chromatographic logD [4] was 1.95. It also gave an MIC90 [2] greater than 20 µM and an IC50 [3] greater than 100 µM.
With `NC(=O)c1sc(N2CCOCC2)cc1OCCc1ccncc1` [Compound 43, 5-Morpholino-3-[2-(4-pyridyl)ethoxy]thiophene-2-carboxamide] the Cli mouse ([1]; female, CD1, mouse, pH 7.4) was 8 mL.min^–1.g^–1, the “CL mouse MEAN” value ([1]; mouse) was 8.013 mL/min/g and the chromatographic logD [4] was 0.617. For the same compound, the MIC90 [2] was greater than 20 µM and the IC50 [3] was greater than 100 µM.
For `N#Cc1ccc(CCOc2cc(N3CCOCC3)sc2C(N)=O)cc1` [Compound 44, 3-[2-(4-Cyanophenyl)ethoxy]-5-morpholino-thiophene-2-carboxamid], the Cli mouse ([1]; female, CD1, mouse, pH 7.4) was 4.8 mL.min^–1.g^–1, the “CL mouse MEAN” value ([1]; mouse) was 4.758 mL/min/g and the chromatographic logD [4] was 1.56. It also gave an MIC90 [2] of 14 µM (≈ 5 µg/mL) and an IC50 [3] greater than 100 µM.
With `NC(=O)c1sc(N2CCOCC2)cc1OCC1CCCO1` (stereo not drawn) [Compound 45, 5-Morpholino-3-((tetrahydrofuran-2-yl)methoxy)thiophene-2-carboxamide] the Cli mouse ([1]; female, CD1, mouse, pH 7.4) was 4.3 mL.min^–1.g^–1, the “CL mouse MEAN” value ([1]; mouse) was 4.249 mL/min/g and the MIC90 [2] was greater than 20 µM. It also gave an IC50 [3] greater than 100 µM.
With `NC(=O)c1sc(N2CCOCC2)cc1OCCN1CCOCC1` [Compound 47, 5-Morpholino-3-(2-morpholinoethoxy)thiophene-2-carboxamide] the Cli mouse ([1]; female, CD1, mouse, pH 7.4) was 0.9 mL.min^–1.g^–1, the “CL mouse MEAN” value ([1]; mouse) was 0.8847 mL/min/g and the chromatographic logD [4] was 0.189. The MIC90 [2] was greater than 20 µM and the IC50 [3] was greater than 100 µM.
For `NC(=O)c1sc(N2CCOCC2)cc1OCc1ccccc1` [Compound 48, 3-Benzyloxy-5-morpholinothiophene-2-carboxamide], the Cli mouse ([1]; female, CD1, mouse, pH 7.4) was 14 mL.min^–1.g^–1, the “CL mouse MEAN” value ([1]; mouse) was 14.31 mL/min/g and the chromatographic logD [4] was 1.52. It also gave an MIC90 [2] greater than 20 µM and an IC50 [3] greater than 100 µM.
For `NC(=O)c1sc(N2CCOCC2)cc1CCCc1ccccc1` [Compound 49, 5-Morpholino-3-(3-phenylpropyl)thiophene-2-carboxamide], the Cli mouse ([1]; female, CD1, mouse, pH 7.4) was 20 mL.min^–1.g^–1, the “CL mouse MEAN” value ([1]; mouse) was 20.17 mL/min/g and the MIC90 [2] was 3.5 µM (≈ 1.16 µg/mL). It also gave an IC50 [3] of 69 µM.
In the case of `NC(=O)c1sc(N2CCOCC2)cc1OCC(O)c1ccccc1` (stereo not drawn) [Compound 51, 3-(2-Hydroxy-2-phenylethoxy)-5-morpholinothiophene-2-carboxamine], the Cli mouse ([1]; female, CD1, mouse, pH 7.4) is reported as 3.8 mL.min^–1.g^–1, the “CL mouse MEAN” value ([1]; mouse) is reported as 3.788 mL/min/g and the chromatographic logD [4] is reported as 1.12. For the same compound, the MIC90 [2] was greater than 20 µM and the IC50 [3] was greater than 100 µM.
